# Reference: ChEMBL document CHEMBL3739366, “Discovery of HTL6641, a dual orexin receptor antagonist with differentiated pharmacodynamic properties” (Medchemcomm, 2015)
# The source made the active and inactive calls. The calls are words filed in the database; no cut-off is given here.
# Tests used:
# [1] = molecular target: T1, Orexin receptor type 2 (Homo sapiens) (UniProt O43614)
# T1 sequence (whole entry): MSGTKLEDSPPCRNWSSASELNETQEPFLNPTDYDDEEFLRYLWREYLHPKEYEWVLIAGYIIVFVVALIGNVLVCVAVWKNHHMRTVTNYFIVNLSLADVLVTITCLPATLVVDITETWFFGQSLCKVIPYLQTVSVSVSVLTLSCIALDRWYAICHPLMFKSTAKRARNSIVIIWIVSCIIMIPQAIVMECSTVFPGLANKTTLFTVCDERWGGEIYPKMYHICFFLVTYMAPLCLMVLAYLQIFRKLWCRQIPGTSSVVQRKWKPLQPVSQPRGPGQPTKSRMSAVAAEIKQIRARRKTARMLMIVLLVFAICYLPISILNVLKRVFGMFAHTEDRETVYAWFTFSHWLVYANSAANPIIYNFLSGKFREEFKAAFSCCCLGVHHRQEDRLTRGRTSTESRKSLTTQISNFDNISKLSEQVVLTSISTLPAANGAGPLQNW
# Description: Binding affinity to orexin receptor-2 (unknown origin) assessed as dissociation half-life by Motulsky-Mahan radioligand binding assay
# [2] = test system: Rattus norvegicus; test: AUC (infinity) in Sprague-Dawley rat at 2 mg/kg, po; type: ADME, organism-based; parameters: dose 2 mg/kg, route oral, time infinity; conditions: in vivo
# [3] = molecular target: Voltage-gated inwardly rectifying potassium channel KCNH2 (Homo sapiens, UniProt Q12809); test: Inhibition of human ERG
# Chain of Voltage-gated inwardly rectifying potassium channel KCNH2 (Q12809 whole entry): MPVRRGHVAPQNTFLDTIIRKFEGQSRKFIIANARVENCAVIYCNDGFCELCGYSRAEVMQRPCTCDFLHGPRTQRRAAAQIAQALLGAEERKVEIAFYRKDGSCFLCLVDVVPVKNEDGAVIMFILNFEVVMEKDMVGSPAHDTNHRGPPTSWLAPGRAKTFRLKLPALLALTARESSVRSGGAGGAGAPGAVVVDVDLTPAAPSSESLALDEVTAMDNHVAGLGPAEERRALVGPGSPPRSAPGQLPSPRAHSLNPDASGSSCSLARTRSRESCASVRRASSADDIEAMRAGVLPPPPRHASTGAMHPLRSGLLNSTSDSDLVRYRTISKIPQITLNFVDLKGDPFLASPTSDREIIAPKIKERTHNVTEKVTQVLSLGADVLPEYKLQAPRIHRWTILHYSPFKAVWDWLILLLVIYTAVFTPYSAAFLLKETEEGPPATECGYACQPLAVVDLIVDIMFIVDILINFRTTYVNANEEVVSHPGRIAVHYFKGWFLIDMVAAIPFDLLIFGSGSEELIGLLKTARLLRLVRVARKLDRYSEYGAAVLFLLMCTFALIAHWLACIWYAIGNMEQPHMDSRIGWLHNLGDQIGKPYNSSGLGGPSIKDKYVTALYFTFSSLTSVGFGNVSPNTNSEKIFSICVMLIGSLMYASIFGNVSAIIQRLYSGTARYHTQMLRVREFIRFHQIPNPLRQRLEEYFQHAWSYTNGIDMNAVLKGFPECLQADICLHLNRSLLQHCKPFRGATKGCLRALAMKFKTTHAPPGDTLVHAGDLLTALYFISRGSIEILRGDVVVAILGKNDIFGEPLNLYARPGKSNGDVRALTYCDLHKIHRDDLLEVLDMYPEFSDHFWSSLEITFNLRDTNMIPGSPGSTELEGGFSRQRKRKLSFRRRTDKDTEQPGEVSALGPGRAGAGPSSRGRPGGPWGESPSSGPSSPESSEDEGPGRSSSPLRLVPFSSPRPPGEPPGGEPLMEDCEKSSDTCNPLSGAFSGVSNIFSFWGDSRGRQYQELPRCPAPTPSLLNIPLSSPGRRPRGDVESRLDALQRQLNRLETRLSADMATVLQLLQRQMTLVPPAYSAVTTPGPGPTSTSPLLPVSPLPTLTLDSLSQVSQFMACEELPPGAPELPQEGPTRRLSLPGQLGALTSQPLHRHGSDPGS
# [4] = Plasma protein binding in human; type: ADME, cell-free; conditions: read-out: PPB (converted)
# [5] = test system: Rattus norvegicus; test: Antiinsomnic activity in CD1 rat assessed as reduction of time spent awake at 3 to 10 mg/kg, po administered at circadian time 18 hrs measured after 3 hrs; type: functional; parameters: scale not given: the % may be the effect or the level left
# [6] = Half life in rat hepatocytes; type: ADME, cell-based, Hepatocyte
# [7] = Plasma concentration in Sprague-Dawley rat plasma at 1 mg/kg, po after 1 hr; type: ADME, organism-based
# [8] = Clearance in Sprague-Dawley rat at 1 mg/kg, iv; type: ADME, organism-based; conditions: in vivo
# [9] = test system: Rattus norvegicus; test: Antiinsomnic activity in CD1 rat assessed as increase of REM sleep at 3 mg/kg, po administered at circadian time 18 hrs measured after 3 hrs; type: functional
# [10] = Plasma protein binding in dog; type: ADME, cell-free, Canis lupus familiaris; conditions: read-out: PPB (converted)
# [11] = test system: Rattus norvegicus; test: Antiinsomnic activity in CD1 rat assessed as increase of promoted sleep at 3 to 10 mg/kg, po administered at circadian time 18 hrs measured after 3 hrs; type: functional
# [12] = Half life in human hepatocytes; type: ADME, cell-based, Hepatocyte
# [13] = test system: Salmonella typhimurium; test: Genotoxicity in Salmonella typhimurium by Ames test in presence of S9 fraction; type: toxicity, organism-based; conditions: salmonella enterica subsp. enterica serovar typhimurium
# [14] = Oral bioavailability in beagle dog at 1 mg/kg; type: ADME, organism-based, Canis lupus familiaris; conditions: in vivo
# [15] = molecular target: T2, Orexin/Hypocretin receptor type 1 (Homo sapiens, UniProt O43613); test: Displacement of [3H]-4-(2,6-Difluoro-4-methoxybenzyl)-2-(5,6-dimethoxypyridin-3-yl)-2H-1,2,4-benzothiadiazin-3(4H)-one 1,1-dioxide from orexin receptor-1 (unknown origin) after 90 mins
# T2 sequence (O43613 whole entry): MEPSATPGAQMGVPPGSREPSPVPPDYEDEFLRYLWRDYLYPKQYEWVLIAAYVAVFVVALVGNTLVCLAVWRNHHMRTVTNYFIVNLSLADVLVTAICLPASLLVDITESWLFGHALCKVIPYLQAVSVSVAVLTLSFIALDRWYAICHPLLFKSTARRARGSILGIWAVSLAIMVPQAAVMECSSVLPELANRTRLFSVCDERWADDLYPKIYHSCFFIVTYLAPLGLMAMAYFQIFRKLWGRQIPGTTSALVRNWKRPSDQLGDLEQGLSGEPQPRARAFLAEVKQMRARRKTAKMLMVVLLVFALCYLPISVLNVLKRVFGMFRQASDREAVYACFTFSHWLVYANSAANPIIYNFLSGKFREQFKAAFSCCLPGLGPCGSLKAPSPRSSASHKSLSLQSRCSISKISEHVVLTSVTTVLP
# [16] = test system: Rattus norvegicus; test: Antiinsomnic activity in CD1 rat assessed as hypnotic effect at 3 to 10 mg/kg, po administered at circadian time 18 hrs measured after 2 to 3 hrs; type: functional, organism-based
# [17] = Ratio of drug level in brain to plasma in Sprague-Dawley rat at 1 mg/kg, iv after 0.5 hrs; type: ADME, organism-based; conditions: read-out: BPR
# [18] = test system: Canis familiaris; test: AUC (infinity) in beagle dog at 1 mg/kg, po; type: ADME, organism-based, Canis lupus familiaris; parameters: dose 1 mg/kg, route oral, time infinity; conditions: in vivo
# [19] = molecular target: T3, Orexin receptor type 2 (Homo sapiens, UniProt O43614); test: Displacement of [3H]EMPA from human orexin receptor-2 expressed in HEK293 cells after 90 mins by scintillation counting; type: cell-based
# T3 sequence (O43614 whole entry): T1 sequence (whole entry)
# [20] = test system: Rattus norvegicus; test: Antiinsomnic activity in CD1 rat assessed as reduction of time taken for latency to first REM episode at 10 mg/kg, po administered at 18 hrs after circadian time; type: functional; parameters: scale not given: the % may be the effect or the level left
# [21] = Efflux ratio of the compound in human Caco2 cells; type: ADME, cell-based; conditions: Caco-2
# [22] = Plasma protein binding in mouse; type: ADME, cell-free; conditions: read-out: PPB (converted)
# [23] = molecular target: T4, Orexin/Hypocretin receptor type 1 (Homo sapiens) (UniProt O43613)
# T4 sequence (whole entry): T2 sequence (O43613 whole entry)
# [24] = Half life in rat liver microsomes; type: ADME
# [25] = molecular target: Cytochrome P450 2D6 (Homo sapiens, UniProt P10635); test: Inhibition of CYP2D6 (unknown origin); type: ADME
# Chain of Cytochrome P450 2D6 (P10635 whole entry): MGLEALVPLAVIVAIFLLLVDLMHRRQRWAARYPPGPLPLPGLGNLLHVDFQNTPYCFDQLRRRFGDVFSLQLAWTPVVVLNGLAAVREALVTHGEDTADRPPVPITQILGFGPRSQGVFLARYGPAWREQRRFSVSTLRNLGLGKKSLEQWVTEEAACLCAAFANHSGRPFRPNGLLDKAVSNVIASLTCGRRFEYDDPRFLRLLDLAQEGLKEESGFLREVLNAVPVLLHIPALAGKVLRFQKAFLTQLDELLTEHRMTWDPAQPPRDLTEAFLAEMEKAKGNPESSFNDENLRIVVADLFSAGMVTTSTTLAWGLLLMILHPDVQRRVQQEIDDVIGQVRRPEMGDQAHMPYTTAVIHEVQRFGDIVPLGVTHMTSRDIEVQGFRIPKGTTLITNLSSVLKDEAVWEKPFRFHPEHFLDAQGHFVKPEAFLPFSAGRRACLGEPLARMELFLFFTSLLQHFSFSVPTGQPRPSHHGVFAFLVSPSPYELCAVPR
# [26] = Half life in cynomolgus monkey hepatocytes; type: ADME, cell-based, Macaca fascicularis, Hepatocyte
# [27] = Oral bioavailability in Sprague-Dawley rat at 2 mg/kg; type: ADME, organism-based; conditions: in vivo
# [28] = Half life in Sprague-Dawley rat at 2 mg/kg, po; type: ADME, organism-based; conditions: in vivo
# [29] = test system: Salmonella typhimurium; test: Genotoxicity in Salmonella typhimurium by Ames test in absence of S9 fraction; type: toxicity, organism-based; conditions: salmonella enterica subsp. enterica serovar typhimurium
compound,measurement,setting,value
COc1cc(N2C(=O)N(Cc3c(F)cc(F)cc3F)c3ncccc3S2(=O)=O)cnc1OC,T1/2,[1],7.6 min
same,AUC,[2],1220 ng·h/mL
same,IC50,[3],> 10000 nM
same,fraction unbound,[4],0.007
same,Activity,[5],18.5%
same,half-life,[6],> 110 min
same,concentration at 1 h,[7],72 ng/mL
same,clearance,[8],18 mL/min/kg
same,Activity,[9],70.6%
same,fraction unbound,[10],0.019
same,Activity,[11],17.4%
same,half-life,[12],> 250 min
same,Activity,[13],Non-toxic
same,bioavailability,[14],70%
same,Ki,[15],20 nM
same,Activity,[16],Active
same,Kp at 0.5 h,[17],0.49
same,AUC,[18],2440 ng·h/mL
same,Ki,[19],2.51 nM
same,Activity,[20],35%
same,efflux ratio,[21],0.7
same,fraction unbound,[22],0.008
same,T1/2,[23],0.8 min
same,half-life,[24],23 min
same,IC50,[25],> 10000 nM
same,half-life,[26],> 250 min
same,bioavailability,[27],66%
same,half-life,[28],108 min
same,Activity,[29],Non-toxic
